1 molecule from article PMC11252418, “Specific glycine-dependent enzyme motion determines the potency of conformation selective inhibitors of threonyl-tRNA synthetase” (Communications Biology, 2024) can be followed below.

Test [1] concerns ObaO_S464G. Nature of the test: ATP hydrolysis assay. The note with it: for ATP hydrolysis activity, inhibitory curve data point: OB, replicates, sheet Fig.S11b. The test is classed as biochemical, Pseudomonas fluorescens. On the procedure: (§1) 200 nM EcThrRS wide type and mutants, ObaO and ObaO_S464G mutant were incubated with serially diluted OB (0 to 10 μM for EcThrRS, 0 to 40 μM for ObaO) in a buffer containing 25 mM HEPES pH 7.5, 50 mM NaCl, 40 mM MgCl2, 30 mM KCl, 0.01 mg/mL bovine serum albumin (BSA), and 0.004% Tween-20 at 37 °C for 4 h and then mixed 1:1 with a substrate mixture containing 4 μM ATP, 40 μM L-threonine, 25 mM HEPES pH 7.5, 50 mM NaCl, 40 mM MgCl2, 30 mM KCl, 0.01 mg/mL BSA, and 0.004% Tween-20. The ATP hydrolysis reaction was performed at 37 °C for 4 h.
(§2) After incubation, the detection solution from the Kinase-Glo® luminescent kit (Promega, USA) was added to the reaction system at a 1:1 ratio, and the mixture was gently shaken for 10 min. The chemiluminescence signal was measured using a microplate reader (Tecan, USA). All experiments were performed in four replicates. The data were processed using GraphPad Prism 8 software.

Test [2] deals with ObaO_WT. Nature of the test: ATP hydrolysis assay. The test is classed as biochemical, Pseudomonas fluorescens. The note with it: for ATP hydrolysis activity, inhibitory curve data point: OB, replicates, sheet Fig.S11b. As for the experimental part:
as §1, §2

Each structure is given as a SMILES string. Where “and” joins values, the source holds several entries; their conditions need not be identical. Equal values may be shown once.

With `O=C(N[C@@H]1C(=O)O[C@@H]1Cc1ccc([N+](=O)[O-])cc1)c1cccc(O)c1O` [OB, Obafluorin], in test [1] (ATP hydrolysis activity), the IC50 came to 3.9 µM. For the same molecule, the “ATP hydrolysis activity, inhibitory curve data point” value was 99.512 and 99.495 and 99.321 and 98.415 in test [1] (Log10 Conc. 1.290, ObaO_S464G); 100.192 and 100.232 and 100.159 and 99.124 in test [1] (Log10 Conc. 1.591, ObaO_S464G); 100.052 and 100.356 and 99.951 and 99.355 in test [1] (Log10 Conc. 1.892, ObaO_S464G); 99.838 and 99.793 and 100.063 and 99.551 in test [1] (Log10 Conc. 2.193, ObaO_S464G); 100.255 and 99.793 and 99.917 and 100.035 in test [1] (Log10 Conc. 2.494, ObaO_S464G); 99.484 and 99.326 and 99.169 and 98.438 in test [1] (Log10 Conc. 2.796, ObaO_S464G). Moreover, the “ATP hydrolysis activity, inhibitory curve data point” value in test [1] (Log10 Conc. 3.097, ObaO_S464G) is 97.897 and 97.852 and 97.621 and 97.352; in test [1] (Log10 Conc. 3.398, ObaO_S464G) it was 93.815 and 92.992 and 93.578 and 91.403; in test [1] (Log10 Conc. 3.699, ObaO_S464G), 77.343 and 76.749 and 76.793 and 77.009; in test [1] (Log10 Conc. 4.000, ObaO_S464G), 40.598 and 39.832 and 38.831 and 45.976; in test [1] (Log10 Conc. 4.301, ObaO_S464G), -1.615 and -1.887 and 0.161 and 3.342; in test [2] (Log10 Conc. 1.290, ObaO_WT), 107.974 and 109.176 and 107.694 and 98.285. In addition, the “ATP hydrolysis activity, inhibitory curve data point” value is 108.081 and 109.543 and 108.587 and 102.335 in test [2] (Log10 Conc. 1.591, ObaO_WT); 104.532 and 105.736 and 104.839 and 104.593 in test [2] (Log10 Conc. 1.892, ObaO_WT); 105.347 and 104.330 and 104.759 and 104.369 in test [2] (Log10 Conc. 2.193, ObaO_WT); 105.496 and 103.616 and 104.222 and 104.732 in test [2] (Log10 Conc. 2.494, ObaO_WT); 106.437 and 103.177 and 103.705 and 104.207 in test [2] (Log10 Conc. 2.796, ObaO_WT); 106.181 and 102.182 and 103.687 and 102.015 in test [2] (Log10 Conc. 3.097, ObaO_WT). Besides, the “ATP hydrolysis activity, inhibitory curve data point” value was 106.327 and 105.039 and 104.877 and 99.875 in test [2] (Log10 Conc. 3.398, ObaO_WT); 106.394 and 102.812 and 104.598 and 101.892 in test [2] (Log10 Conc. 3.699, ObaO_WT); 107.419 and 105.942 and 102.834 and 91.914 in test [2] (Log10 Conc. 4.000, ObaO_WT); 100.516 and 99.049 and 100.129 and 101.285 in test [2] (Log10 Conc. 4.301, ObaO_WT). Moreover, in test [2] (ATP hydrolysis activity), the “inhibitory effect” value was “no inhibitory effect”.

Broadly, the IC50 is the concentration needed to halve the response being measured. Read a high IC50 as a need for much substance.
